32 compounds from patent US11065253B2, “Arylquinazolines” (Merck Patent GmbH, priority 2013, dated 2021) can be followed below.

Where only a bound is given, the exact number is not on record here.

One test concerns phospho-serine 2056 DNA-PK in HCT116 cells. Put plainly: DNA-PK phosphorylation at serine 2056 (cellular), ELISA in bleomycin-treated HCT116 cells. It is filed as cell-based. The settings on record: Homo sapiens, HCT-116, 6 h, cellular; HCT116 cells, 10 μM bleomycin, six hours; read-out: IC50 pDNA-PK. An outline of the steps: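 Chemiluminescent ELISA read-out; phospho-specific signal normalised to total DNA-PKcs. Cells (HCT116) exposed 6 h to test compound plus 10 μM bleomycin to induce double-strand breaks; DMSO control served as blank.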
In general terms: An ELISA detects its analyte on a solid surface through an enzyme-linked reagent.
Regarding `OC(c1ccc(F)c(-c2ncnc3cc(N4CCOCC4)ccc23)c1)c1nccnc1Cl` (centres unmarked) [Example 54, (3-Chloro-pyrazin-2-yl)-[4-fluoro-3-(7-morpholin-4-yl-quinazolin-4-yl)phenyl]-methanol], the 50% inhibitory concentration (IC50) was under 0.5 µM.
Still for that read-out and setting: as for `OC(c1ccc(F)c(-c2ncnc3cc(N4CCOCC4)ccc23)c1)c1c(Cl)cncc1Cl` (centres unmarked) [Example 17, (3,5-Dichloro-pyridin-4-yl)-[4-Fluoro-3-(7-morpholin-4-yl-quinazolin-4-yl)phenyl]-methanol], the figure is 0.5 to 5 µM; as for `Cc1nccnc1C(O)c1cc(-c2ncnc3cc(N4CCOCC4)ccc23)c(F)cc1F` (centres unmarked) [Example 84, [2,4-Difluoro-5-(7-morpholin-4-yl-quinazolin-4-yl)-phenyl]-(3-methyl-pyrazin-2-yl)methanol], under 0.5 µM; as for `O=c1ccc(C(O)c2cc(-c3ncnc4cc(N5CCOCC5)ccc34)c(F)cc2Cl)nn1CCO` (centres unmarked) [Example 99, 6-{[2-Chloro-4-fluoro-5-(7-morpholin-4-yl-quinazolin-4-yl)phenyl]-hydroxymethyl}-2-(2-hydroxy-ethyl)-2H-pyridazin-3-one], 0.5 to 5 µM.
The same measure, in the same setting: the same measure for `COc1cnc(C(O)c2ccc(OC)c(-c3ncnc4cc(N5CCOCC5)ccc34)c2)cn1` (centres unmarked) [Example 61, [4-methoxy-3-(7-morpholin-4-yl-quinazolin-4-yl)phenyl]-(5-methoxypyrazin-2-yl)methanol]: 10 to 30 µM; for `Cc1nccnc1C(O)c1ccc(F)c(-c2ncnc3cc(N4CCOCC4)ccc23)c1` (centres unmarked) [Example 78, [4-Fluoro-3-(7-morpholin-4-yl-quinazolin-4-yl)phenyl]-(3-methylpyrazin-2-yl)-methanol]: under 0.5 µM; for `Cc1nccnc1[C@@H](O)c1ccc(F)c(-c2ncnc3cc(N4CCOCC4)ccc23)c1` [Example 82, (S)-[4-Fluoro-3-(7-morpholin-4-yl-quinazolin-4-yl)-phenyl]-(3-methyl-pyrazin-2-yl)methanol]: 0.5 to 5 µM.
In the case of `Cc1ccc(C(O)c2ccc(F)c(-c3ncnc4cc(N5CCOCC5)ccc34)c2)nn1` (centres unmarked) [Example 70, [4-Fluoro-3-(7-morpholin-4-yl-quinazolin-4-yl)phenyl]-(6-methylpyridazin-3-yl)methanol], the 50% inhibitory concentration (IC50) was in the range of 0.5 to 5 µM.
In the case of `CC(C)(C)Oc1nccnc1C(O)c1ccc(F)c(-c2ncnc3cc(N4CCOCC4)ccc23)c1` (centres unmarked) [Example 13, (3-tert-Butoxy-pyrazin-2-yl)-[4-fluoro-3-(7-morpholin-4-yl-quinazolin-4-yl)phenyl]-methanol], the concentration for half-maximal inhibition (IC50) lay within 10 to 30 µM.

Still in this test, the particulars now being: Homo sapiens, HCT-116, cellular DNA-PK phosphorylation at serine 2056, HCT116 cells; read-out: IC50 pDNA-PK.
For `OC(c1ccc(F)c(-c2ncnc3cc(N4CCOCC4)ccc23)c1)c1ncccc1Cl` (centres unmarked) [Example 465, (3-Chloro-pyridin-2-yl)-[4-fluoro-3-(7-morpholin-4-yl-quinazolin-4-yl)-phenyl]methanol], the concentration for half-maximal inhibition (IC50) was under 0.5 µM.
Still for that read-out and setting: as for `Cn1ncc2c(C(O)c3cc(-c4ncnc5cc(N6CCOCC6)ccc45)ccc3F)ncnc21` (centres unmarked) [Example 391, [2-Fluoro-5-(7-morpholin-4-yl-quinazolin-4-yl)-phenyl]-(1-methyl-1H-pyrazolo[3,4-d}-pyrimidin-4-yl)-methanol], the figure is 0.5 to 5 µM; as for `OC(c1ccc(F)c(-c2ncnc3cc(N4CCOCC4)ccc23)c1)c1ncccc1OC(F)(F)F` (centres unmarked) [Example 475, [4-Fluoro-3-(7-morpholin-4-yl-quinazolin-4-yl)-phenyl]-(3-trifluoro-methoxypyridin-2-yl)-methanol], under 0.5 µM.

Staying with this test, now noted: Homo sapiens, HCT-116, phospho-serine 2056 DNA-PK, bleomycin-treated HCT116 cells; class symbols A-D; read-out: IC50 pDNA-PK.
`Cn1nc(C(O)c2ccc(F)c(-c3ncnc4cc(N5CCOCC5)ccc34)c2F)ccc1=O` (centres unmarked) [Example 220, 6-{[2,4-Difluoro-3-(7-morpholin-4-yl-quinazolin-4-yl)-phenyl]hydroxy-methyl}-2-methyl-2H-pyridazin-3-one]: the IC50 fell in the range of 5 to 10 µM.
Take `OCc1csc(C(O)c2cc(-c3ncnc4cc(N5CCOCC5)ncc34)c(F)cc2Cl)n1` (centres unmarked) [Example 141, [2-Chloro-4-fluoro-5-(7-morpholin-4-yl-pyrido[4,3-d}-pyrimidin-4-yl)-phenyl]-(4-hydroxymethyl-thiazol-2-yl)-methanol]: the IC50 fell in the range of 10 to 30 µM.
On the same count and under the same terms, the same measure for `OCCOc1nccnc1C(O)c1ccc(F)c(-c2ncnc3cc(N4CCOCC4)ccc23)c1` (centres unmarked) [Example 105, 2-(3-{[4-fluoro-3-(7-morpholin-4-yl-quinazolin-4-yl)-phenyl]hydroxy-methyl}pyrazin-2-yl-oxy)ethanol]: 10 to 30 µM; for `OC(c1ccc(F)c(-c2ncnc3cc(N4CCOCC4)sc23)c1)c1nccs1` (racemic) [Example 144, [4-Fluoro-3-(6-morpholin-4-yl-thieno[3,2-d}-pyrimidin-4-yl)-phenyl]thiazol-2-yl-methanol]: 0.5 to 5 µM.
Same read-out and setting: the same measure for `Cn1nc(C(O)c2cc(-c3ncnc4cc(N5CCOCC5)ccc34)c(F)cc2F)ccc1=O` (centres unmarked) [Example 219, 6-{[2,4-Difluoro-5-(7-morpholin-4-yl-quinazolin-4-yl)-phenyl]hydroxy-methyl}-2-methyl-2H-pyridazin-3-one]: 0.5 to 5 µM.

Still in this test, the particulars now being: Homo sapiens, HCT-116, phospho-serine 2056 DNA-PK, bleomycin-treated HCT116 cells; read-out: IC50 pDNA-PK.
With `[2H]C1([2H])OC([2H])([2H])C([2H])([2H])N(c2ccc3c(-c4cc(C(O)c5nccnc5C)ccc4F)ncnc3c2)C1([2H])[2H]` (centres unmarked) [Example 238, [4-Fluoro-3-[7-(2,2,3,3,5,5,6,6-octadeuterio-morpholin-4-yl)quinazolin-4-yl]phenyl]-(3-methyl-pyrazin-2-yl)-methanol], the 50% inhibitory concentration (IC50) was under 0.5 µM.
In the case of `NC(=O)C(c1ccc(F)c(-c2ncnc3cc(N4CCOCC4)ccc23)c1)c1ncnn2cccc12` (centres unmarked) [Example 299, 2-[4-Fluoro-3-(7-morpholin-4-yl-quinazolin-4-yl)-phenyl]-2-pyrrolo-[2,1-f][1,2,4]triazin-4-ylacetamide], the IC50 fell in the range of 10 to 30 µM.
On the same count and under the same terms, the same measure for `Cc1nccnc1[C@@H](O)c1ccc(F)c(-c2ncnc3cc(N4CCOCC4)cnc23)c1` [Example 233, (S)-[4-Fluoro-3-(7-morpholin-4-yl-pyrido[3,2-d}-pyrimidin-4-yl)-phenyl]-(3-methyl-pyrazin-2-yl)-methanol]: 10 to 30 µM.
Same read-out and setting: the same measure for `OC(c1cc(-c2ncnc3cc(N4CCOCC4)ccc23)c(F)cc1F)c1nncc2sccc12` (centres unmarked) [Example 341, [2,4-Difluoro-5-(7-morpholin-4-yl-quinazolin-4-yl)-phenyl]thieno[2,3-d}-pyridazin-4-yl-methanol]: under 0.5 µM; for `Cc1cnc(C(O)c2cc(-c3ncnc4cc(N5CCOCC5)ccc34)c(F)cc2F)c(C)n1` (centres unmarked) [Example 355, [2,4-Difluoro-5-(7-morpholin-4-yl-quinazolin-4-yl)-phenyl]-(3,5-dimethyl-pyrazin-2-yl)methanol]: 0.5 to 5 µM; for `Cc1nccnc1Cc1ccc(F)c(-c2ncnc3cc(N4CCOCC4)ccc23)c1` [Example 349, 4-[2-Fluoro-5-(3-methyl-pyrazin-2-ylmethyl)phenyl]-7-morpholin-4-yl-quinazoline]: under 0.5 µM.

The same test, now with this note: cellular DNA-PK phosphorylation at serine 2056, HCT116 cells; read-out: IC50 pDNA-PK.
Turning to `OC(c1cc(-c2ncnc3cc(N4CCOCC4)ccc23)c(F)cc1Cl)c1ncnc2ccoc12` (centres unmarked) [Example 441, [2-Chloro-4-fluoro-5-(7-morpholin-4-yl-quinazolin-4-yl)-phenyl]furo[3,2-d}-pyrimidin-4-yl-methanol], the concentration for half-maximal inhibition (IC50) is under 0.5 µM.
On the same count and under the same terms, as for `OC(c1cc(-c2ncnc3cc(N4CCOCC4)ccc23)c(F)cc1F)c1nccnc1OC(F)F` (centres unmarked) [Example 450, (3-Difluoromethoxy-pyrazin-2-yl)-[2,4-difluoro-5-(7-morpholin-4-yl-quinazolin-4-yl)-phenyl]methanol], the figure is 5 to 10 µM.
Still for that read-out and setting: the same measure for `OC(c1ccc(F)c(-c2ncnc3cc(N4CCOCC4)ccc23)c1)c1ncnc2ccoc12` (centres unmarked) [Example 471, [4-Fluoro-3-(7-morpholin-4-yl-quinazolin-4-yl)-phenyl]furo[3,2-d}-pyrimidin-4-yl-methanol]: under 0.5 µM.
Still for that read-out and setting: the same measure for `Cn1c(C(O)c2cc(-c3ncnc4cc(N5CCOCC5)ccc34)c(F)cc2F)cccc1=O` (centres unmarked) [Example 381, 6-{[2,4-Difluoro-5-(7-morpholin-4-yl-quinazolin-4-yl)-phenyl]hydroxy-methyl}-1-methyl-1H-pyridin-2-one (Ena 1)]: 0.5 to 5 µM; for `Cc1cncnc1C(C(N)=O)c1cc(-c2ncnc3cc(N4CCOCC4)ccc23)ccc1Cl` (centres unmarked) [Example 378, 2-[2-Chloro-5-(7-morpholin-4-yl-quinazolin-4-yl)-phenyl]-2-(5-methyl-pyrimidin-4-yl)-acetamide (Ena 1)]: 0.5 to 5 µM.

Staying with this test, now noted: cellular; HCT116 cells, 10 μM bleomycin, six hours; read-out: IC50 pDNA-PK.
For the compound `OC(c1cccnn1)c1cc(-c2ncnc3cc(N4CCOCC4)ccc23)c(F)cc1Cl` (centres unmarked) [Example 47, [2-Chloro-4-fluoro-5-(7-morpholin-4-yl-quinazolin-4-yl)phenyl]-pyridazin-3-ylmethanol], the half-inhibitory concentration (IC50) is under 0.5 µM.
For `Cc1nccnc1C(O)c1cc(-c2ncnc3cc(N4CCOCC4)ccc23)c(F)cc1F` (centres unmarked) [Example 86, [2,4-Difluoro-5-(7-morpholin-4-yl-quinazolin-4-yl)-phenyl]-(3-methyl-pyrazin-2-yl)methanol], the IC50 was under 0.5 µM.

Still in this test, the particulars now being: phospho-serine 2056 DNA-PK, bleomycin-treated HCT116 cells; class symbols A-D; read-out: IC50 pDNA-PK.
On to `OC(c1cc(F)c(F)c(-c2ncnc3cc(N4CCOCC4)ccc23)c1)c1nccs1` (centres unmarked) [Example 178, [3,4-Difluoro-5-(7-morpholin-4-yl-quinazolin-4-yl)-phenyl]thiazol-2-yl-methanol], for which the concentration for half-maximal inhibition (IC50) was in the range of 0.5 to 5 µM.

The same test, now with this note: phospho-serine 2056 DNA-PK, bleomycin-treated HCT116 cells; read-out: IC50 pDNA-PK.
Consider `[2H]C1([2H])OC([2H])([2H])C([2H])([2H])N(c2ccc3c(-c4cc(C(O)c5ccc(OC)nn5)c(Cl)cc4F)ncnc3c2)C1([2H])[2H]` (centres unmarked) [Example 239, [2-Chloro-4-fluoro-5-[7-(2,2,3,3,5,5,6,6-octadeuterio-morpholin-4-yl)quinazolin-4-yl]phenyl]-(6-methoxypyridazin-3-yl)methanol], for which the IC50 lay within 10 to 30 µM.

As a reminder, the IC50 is the concentration that inhibits the measured activity by half.
